In patent US20220347171A1, “TREATMENT OF PRURIGO NODULARIS” (TREVI THERAPEUTICS, INC., priority 2016, published 2022):
Counter-ions that a name gives are not always drawn.

System: prurigo nodularis patients
Assay: TR03ext (Example 3): PAS prurigo lesions with excoriations/crusts; Stage 0 0%, Stage 1 1%-25%, Stage 2 26%-50%, Stage 3 51%-75%, Stage 4 76%-100%
Format: in vivo, human
Source text: In some embodiments, after the treatment the patient experiences a substantial reduction of itch that is characterized by at least one category/stage improvement in Prurigo Activity Score (PAS). In particular embodiments, after the treatment the patient experiences a reduction of itch that results in at least one category/stage improvement in Prurigo Activity Score (PAS) domains of number of prurigo lesions, prurigo lesions with excoriations/crusts and/or healed prurigo lesions. The PAS consists of 7 qualitative and quantitative measurements related to the examination of the skin. Type, number, distribution, affected body parts, and quantitative number of lesions in a representative body part are documented. The biggest lesion and the most representative lesion are monitored with documentation of height and area measurements. Prurigo lesion activity is recorded as a percentages based on their stage (0-4). In some embodiments, number measurements of lesions on the body have four numerical categories: 0, 1-19, 20-100 and >100. In some embodiments, prurigo lesions with excoriations/crusts have five categories: Stage 4 (76%-100%), Stage 3 (51%-75%), Stage 2 (26%-50%), Stage 1 (1-25%) and Stage 0 (0%). In some embodiments, healed prurigo lesions have five categories: Stage 4 (0-24%), Stage 3 (25-49%), Stage 2 (50-74%), Stage 1 (75%-99%), Stage 0 (100%).
This clinical study was a Phase 2 Open Label Extension Study (clinical study TR03ext) of the randomized, double-blind, 3-parallel arm, placebo controlled dose ranging study described in Example 2. All those subjects who were randomized, and then completed Example 2 study, were eligible to participate in the Extension Study.
The primary endpoint was a description of the overall incidence and nature of Treatment-Emergent AEs (TEAES) during weeks 5-50 of the study. Exploratory efficacy endpoints included Change from Baseline patient reported outcome measures of Worst itch NRS, itchy VRS and ItchyQoL, by Treatment Period study visit and Baseline NRS score. There was also an assessment of any potential skin lesion changes over time using the metrics of the PAS.
Patients in Extension Study were titrated over a dose range of 30 mg QD to 180 mg BID based on tolerability. The selected dose range was based on Example 2 study whereby patients were titrated from a 30 mg QD dose either to 30 mg BID, 60 mg BID, 90 mg BID, 120 mg BID or a 180 mg BID dose. The highest dose proposed was 180 mg BID (360 mg daily dose), and was well below the highest recommended daily treatment of 160 mg IV (equivalent to 960 mg oral) for the current marketed parenteral administered product.
Table 15, 16 and 17 display excoriations/crusts lesion PAS data for subjects who received treatment for at least 6 months, subjects who received treatment for at least 9 months and subjects who completed 50 weeks of treatment in the study, respectively. The status of the prurigo lesions with excoriations/crusts is reported as percentages based on their stage (0-4) using a grading system: Stage 0 (0% excoriations/crusts); Stage 1 (1%-25% excoriations/crusts); Stage 2 (26%-50% excoriations/crusts); Stage 3 (51%-75% excoriations/crusts); Stage 4: (76%-100% excoriations/crusts). Thus, the higher the stage, the more severe is the prurigo skin pathology.

[1] = treatment for at least 6 months
[2] = treatment for at least 9 months

For `Oc1ccc2c3c1OC1[C@@H](O)CC[C@@]4(O)[C@@H](C2)N(CC2CCC2)CC[C@]314` (stereo partly drawn) [Nalbuphine, 17-(cyclobutylmethyl)-4,5α-epoxymorphinian-3, 6α, 14-triol, hydrochloride], the “Excoriated/Crusts PAS Category Shift: Baseline Stage 2 to Last Observed Stage 3” value [1] was 0 Number (%) of Subjects, the “Excoriated/Crusts PAS Category Shift: Baseline Stage 2 to Last Observed Stage 4” value [1] was 0 Number (%) of Subjects and the “Excoriated/Crusts PAS Category Shift: Baseline Stage 3 to Last Observed Stage 0” value [1] was 0 Number (%) of Subjects. For the same compound, the “Excoriated/Crusts PAS Category Shift: Baseline Stage 3 to Last Observed Stage 1” value [1] was 1 (5.9%) Number (%) of Subjects, the “Excoriated/Crusts PAS Category Shift: Baseline Stage 3 to Last Observed Stage 2” value [1] was 2 (11.8%) Number (%) of Subjects and the “Excoriated/Crusts PAS Category Shift: Baseline Stage 3 to Last Observed Stage 3” value [1] was 1 (5.9%) Number (%) of Subjects. The “Excoriated/Crusts PAS Category Shift: Baseline Stage 3 to Last Observed Stage 4” value [1] was 0 Number (%) of Subjects, the “Excoriated/Crusts PAS Category Shift: Baseline Stage 4 to Last Observed Stage 0” value [1] was 1 (5.9%) Number (%) of Subjects and the “Excoriated/Crusts PAS Category Shift: Baseline Stage 4 to Last Observed Stage 1” value [1] was 2 (11.8%) Number (%) of Subjects. The “Excoriated/Crusts PAS Category Shift: Baseline Stage 4 to Last Observed Stage 2” value [1] was 0 Number (%) of Subjects, the “Excoriated/Crusts PAS Category Shift: Baseline Stage 4 to Last Observed Stage 3” value [1] was 0 Number (%) of Subjects and the “Excoriated/Crusts PAS Category Shift: Baseline Stage 4 to Last Observed Stage 4” value [1] was 1 (5.9%) Number (%) of Subjects. The “Excoriated/Crusts PAS: Last Observed PAS Result Stage 0” value [1] was 3 (17.6) Number (%) of Subjects, the “Excoriated/Crusts PAS: Last Observed PAS Result Stage 1” value [1] was 9 (52.9) Number (%) of Subjects and the “Excoriated/Crusts PAS: Last Observed PAS Result Stage 2” value [1] was 2 (11.8) Number (%) of Subjects. For the same compound, the “Excoriated/Crusts PAS: Last Observed PAS Result Stage 3” value [1] was 1 (5.9) Number (%) of Subjects, the “Excoriated/Crusts PAS: Last Observed PAS Result Stage 4” value [1] was 2 (11.8) Number (%) of Subjects and the “Excoriated/Crusts PAS Category Shift: Baseline Stage 0 to Last Observed Stage 0” value [2] was 1 (7.1%) Number (%) of Subjects. The “Excoriated/Crusts PAS Category Shift: Baseline Stage 0 to Last Observed Stage 1” value [2] was 0 Number (%) of Subjects, the “Excoriated/Crusts PAS Category Shift: Baseline Stage 0 to Last Observed Stage 2” value [2] was 0 Number (%) of Subjects and the “Excoriated/Crusts PAS Category Shift: Baseline Stage 0 to Last Observed Stage 3” value [2] was 0 Number (%) of Subjects. The “Excoriated/Crusts PAS Category Shift: Baseline Stage 0 to Last Observed Stage 4” value [2] was 0 Number (%) of Subjects, the “Excoriated/Crusts PAS Category Shift: Baseline Stage 1 to Last Observed Stage 0” value [2] was 0 Number (%) of Subjects and the “Excoriated/Crusts PAS Category Shift: Baseline Stage 1 to Last Observed Stage 1” value [2] was 1 (7.1%) Number (%) of Subjects. The “Excoriated/Crusts PAS Category Shift: Baseline Stage 1 to Last Observed Stage 2” value [2] was 0 Number (%) of Subjects, the “Excoriated/Crusts PAS Category Shift: Baseline Stage 1 to Last Observed Stage 3” value [2] was 0 Number (%) of Subjects and the “Excoriated/Crusts PAS Category Shift: Baseline Stage 1 to Last Observed Stage 4” value [2] was 1 (7.1%) Number (%) of Subjects. For the same compound, the “Excoriated/Crusts PAS Category Shift: Baseline Stage 2 to Last Observed Stage 0” value [2] was 0 Number (%) of Subjects, the “Excoriated/Crusts PAS Category Shift: Baseline Stage 2 to Last Observed Stage 1” value [2] was 5 (35.7%) Number (%) of Subjects and the “Excoriated/Crusts PAS Category Shift: Baseline Stage 2 to Last Observed Stage 2” value [2] was 0 Number (%) of Subjects. The “Excoriated/Crusts PAS Category Shift: Baseline Stage 2 to Last Observed Stage 3” value [2] was 0 Number (%) of Subjects, the “Excoriated/Crusts PAS Category Shift: Baseline Stage 2 to Last Observed Stage 4” value [2] was 0 Number (%) of Subjects and the “Excoriated/Crusts PAS Category Shift: Baseline Stage 3 to Last Observed Stage 0” value [2] was 0 Number (%) of Subjects. The “Excoriated/Crusts PAS Category Shift: Baseline Stage 3 to Last Observed Stage 1” value [2] was 0 Number (%) of Subjects, the “Excoriated/Crusts PAS Category Shift: Baseline Stage 3 to Last Observed Stage 2” value [2] was 2 (14.3%) Number (%) of Subjects and the “Excoriated/Crusts PAS Category Shift: Baseline Stage 3 to Last Observed Stage 3” value [2] was 1 (7.1%) Number (%) of Subjects. For the same compound, the “Excoriated/Crusts PAS Category Shift: Baseline Stage 3 to Last Observed Stage 4” value [2] was 0 Number (%) of Subjects, the “Excoriated/Crusts PAS Category Shift: Baseline Stage 4 to Last Observed Stage 0” value [2] was 1 (7.1%) Number (%) of Subjects and the “Excoriated/Crusts PAS Category Shift: Baseline Stage 4 to Last Observed Stage 1” value [2] was 1 (7.1%) Number (%) of Subjects. The “Excoriated/Crusts PAS Category Shift: Baseline Stage 4 to Last Observed Stage 2” value [2] was 0 Number (%) of Subjects, the “Excoriated/Crusts PAS Category Shift: Baseline Stage 4 to Last Observed Stage 3” value [2] was 0 Number (%) of Subjects and the “Excoriated/Crusts PAS Category Shift: Baseline Stage 4 to Last Observed Stage 4” value [2] was 1 (7.1%) Number (%) of Subjects. The “Excoriated/Crusts PAS: Last Observed PAS Result Stage 0” value [2] was 2 (14.3) Number (%) of Subjects, the “Excoriated/Crusts PAS: Last Observed PAS Result Stage 1” value [2] was 7 (50.0) Number (%) of Subjects and the “Excoriated/Crusts PAS: Last Observed PAS Result Stage 2” value [2] was 2 (14.3) Number (%) of Subjects. The “Excoriated/Crusts PAS: Last Observed PAS Result Stage 3” value [2] was 1 (7.1) Number (%) of Subjects and the “Excoriated/Crusts PAS: Last Observed PAS Result Stage 4” value [2] was 2 (14.3) Number (%) of Subjects.
